Measured values published in PMC6499206, “Quantification of Volatile Metabolites Derived From Garlic (Allium sativum) in Human Urine” (Frontiers in Nutrition, 2019).

Experiment: Quantification of garlic-derived metabolites in human urine after ingestion of 3 g raw garlic (SIDA, SAFE, HRGC-MS / HRGC-GC-MS)
Type: in vivo
Set-up: metabolite in urine related to creatinine: unit not given here
Details: for metabolite concentration in urine, creatinine-normalized / metabolite concentration in urine / time of highest concentration in urine after garlic consumption / highest detected concentration of the sample series: 3 g raw garlic; for highest detected concentration of the sample series: same bulb
Source text: Human urine samples were obtained from 18 volunteers (age 22–38 years, mean 27 years; 11 females, 7 males); thereby, one volunteer conducted the whole experimental series twice. At the time of examination, volunteers reported no known illness that might have potentially influenced the metabolism or the excretion of urine. The test persons were instructed to avoid foods that were rich in sulfur-containing substances at the testing day as well as 2 days preceding the testing day, namely garlic, onion, wild garlic, chives, cabbage, and leek, and were only allowed to consume the garlic sample provided in the course of the experiments. Additionally, subjects were asked to keep records of the food (including food supplements) and beverages they consumed during these 3 testing days. Generally, the overall panelists' requirements were in accordance with our previous studies ([5], [16]).
On the sampling day, the outer garlic cloves of a whole garlic bulb were peeled and cut into ~3 mm cubes by using a garlic cutter (Genius GmbH, Limburg/Lahn, Germany). Subsequently these cubes were thoroughly mixed and aliquoted into 3 g portions. Three to four test persons conducted the experiment at the same day. Each test person was asked to ingest a garlic portion of 3 g. In total, eight consecutive urine samples were provided by each test person, comprising one whole urine set. The samples were collected in sterile brown glass bottles, with sampling times as follows: one sample was provided directly prior to garlic consumption. The series of the second to eighth sample was then obtained at about 0.5, 1, 2, 4, 6, 8, and 24 h after garlic consumption, respectively. Between the first urine sample (prior to garlic consumption) and the seventh urine sample (8 h after garlic consumption) test persons only spent urine at the specific time points mentioned before. Another sample was provided at the next morning (24 h after garlic consumption). Between the samples provided 8 and 24 h after garlic consumption no urine was collected. All samples were immediately placed into a −80°C freezer and were kept frozen until further analysis.
The samples of each set were termed according to their sampling time. The following list provides the time intervals that are related to the respective sample name: • - pre: before garlic consumption • - 0.5 h post: 0.4–0.8 h after garlic consumption • - 1 h post: 0.9–1.3 h after garlic consumption • - 2 h post: 1.8 h−2.2 h after garlic consumption • - 4 h post: 3.8–4.4 h after garlic consumption • - 6 h post: 5.8–6.4 h after garlic consumption • - 8 h post: 7.8–8.4 h after garlic consumption • - 24 h post: 23.8–25.6 h after garlic consumption
A creatinine kit (Labor+Technik Eberhard Lehmann GmbH, Berlin, Germany) was used to determine the creatinine content in each urine sample. The determination principle of this kit is based on the reaction of creatinine with picric acid under basic conditions (Jaffé reaction). The formed complex was detected photometrically at a wavelength of 492 nm.
For quantification purposes, the deuterated standards ^2H3-AMS, ^2H3-AMSO, and ^2H3-AMSO2 were added to the sample and stirred for 10 min. Subsequently, DCM was added in a ratio of 1:2 (DCM/human urine; v/v) and this solution was stirred for further 30 min at room temperature. To isolate the volatile fraction from the urine samples we then applied SAFE-distillation ([17]), thereby distilling the respective samples at 50°C. After completion of the distillation process, 10 mL of DCM were applied in each case to rinse the SAFE apparatus and to ensure complete transition of the volatile compounds. This process was repeated with another 10 mL of DCM. After thawing, the obtained aqueous distillate phase was extracted three times with 25 mL DCM. The organic phases were combined, dried over anhydrous Na2SO4 and concentrated to a total volume of 100 μL by means of Vigreux distillation and subsequent micro-distillation at 50°C. […]

For C=CCSC [AMS, allyl methyl sulfide], the “metabolite concentration in urine, creatinine-normalized” value (U XII, 2 h post (1.85 h)) was 1.3 µg/mmol creatinine, the “metabolite concentration in urine” value (U XII, 4 h post (3.80 h)) was 0.5 µg/kg and the “metabolite concentration in urine, creatinine-normalized” value (U XII, 4 h post (3.80 h)) was 0.2 µg/mmol creatinine. For the same compound, the “metabolite concentration in urine” value (U XII, 6 h post (5.82 h)) was 0.4 µg/kg, the “metabolite concentration in urine, creatinine-normalized” value (U XII, 6 h post (5.82 h)) was 0.1 µg/mmol creatinine and the “metabolite concentration in urine” value (U XII, 8 h post (7.82 h)) was 0.3 µg/kg. The “metabolite concentration in urine, creatinine-normalized” value (U XII, 8 h post (7.82 h)) was 0.1 µg/mmol creatinine, the “metabolite concentration in urine” value (U XII, 24 h post (23.92 h)) was “traces^1” and the “metabolite concentration in urine, creatinine-normalized” value (U XII, 24 h post (23.92 h)) was “traces^1”. The “metabolite concentration in urine” value (U XII, pre (-0.08 h)) was “traces^1”, the “metabolite concentration in urine, creatinine-normalized” value (U XII, pre (-0.08 h)) was “traces^1” and the “metabolite concentration in urine” value (U XIII, 0.5 h post (0.42 h)) was 0.2 µg/kg. The “metabolite concentration in urine, creatinine-normalized” value (U XIII, 0.5 h post (0.42 h)) was 0.1 µg/mmol creatinine, the “metabolite concentration in urine” value (U XIII, 1 h post (0.92 h)) was 0.9 µg/kg and the “metabolite concentration in urine, creatinine-normalized” value (U XIII, 1 h post (0.92 h)) was 0.3 µg/mmol creatinine. For the same compound, the “metabolite concentration in urine” value (U XIII, 2 h post (1.92 h)) was 1.0 µg/kg, the “metabolite concentration in urine, creatinine-normalized” value (U XIII, 2 h post (1.92 h)) was 0.3 µg/mmol creatinine and the “metabolite concentration in urine” value (U XIII, 4 h post (3.92 h)) was 0.8 µg/kg. For the same compound, the “metabolite concentration in urine, creatinine-normalized” value (U XIII, 4 h post (3.92 h)) was 0.2 µg/mmol creatinine, the “metabolite concentration in urine” value (U XIII, 6 h post (5.92 h)) was 0.4 µg/kg and the “metabolite concentration in urine, creatinine-normalized” value (U XIII, 6 h post (5.92 h)) was 0.04 µg/mmol creatinine. For the same compound, the “metabolite concentration in urine” value (U XIII, 8 h post (7.92 h)) was 0.3 µg/kg, the “metabolite concentration in urine, creatinine-normalized” value (U XIII, 8 h post (7.92 h)) was 0.03 µg/mmol creatinine and the “metabolite concentration in urine” value (U XIII, 24 h post (23.92 h)) was “traces^1”. The “metabolite concentration in urine, creatinine-normalized” value (U XIII, 24 h post (23.92 h)) was “traces^1”, the “metabolite concentration in urine” value (U XIII, pre (-0.08 h)) was “< LOD^1” and the “metabolite concentration in urine, creatinine-normalized” value (U XIII, pre (-0.08 h)) was “< LOD^1”. For the same compound, the “amounts detected in samples collected prior to garlic intervention” value (Urine III, VII, VIII, XI, XII, XVI, XVII, pre-ingestion samples) was no more than 0.2 μg/mmol creatinine, the “time of highest concentration in urine after garlic consumption” value (Urine VIII) was 0.5 h and the “variation factor of the concentration maxima between test persons” value (Urine XIII-XVI, highest vs lowest maximum) was “up to 3.2”. The “highest detected concentration of the sample series” value (“highest detected concentration” below) (Urine XIII) was 0.3 μg/mmol creatinine, the “highest detected concentration” value (Urine XIV (AMS: printed Urine UIV)) was 0.4 μg/mmol creatinine and the “highest detected concentration” value (Urine XV) was 1.0 μg/mmol creatinine. For the same compound, the “time of highest concentration in urine after garlic consumption” value (Urine XVI) was 4 h, the “highest detected concentration” value (Urine XVI) was 0.3 μg/mmol creatinine and the “metabolite in urine related to creatinine” value (from here on “metabolite in urine related”) (urine set U XIX, 0.5 h post (0.50 h), garlic 3.1133 g) was 0.1. The “metabolite in urine related” value (urine set U XIX, 1 h post (1.00 h), garlic 3.1133 g) was 1.5, the “metabolite in urine related” value (urine set U XIX, 2 h post (2.00 h), garlic 3.1133 g) was 0.4 and the “metabolite in urine related” value (urine set U XIX, 4 h post (4.00 h), garlic 3.1133 g) was 0.2. The “metabolite in urine related” value (urine set U XIX, 6 h post (6.20 h), garlic 3.1133 g) was 0.1, the “metabolite in urine related” value (urine set U XIX, 8 h post (7.93 h), garlic 3.1133 g) was 0.1 and the “metabolite in urine related” value (urine set U XIX, 24 h post (23.98 h), garlic 3.1133 g) was 0.02. The “metabolite in urine related” value (urine set U XIX, pre (-0.07 h), garlic 3.1133 g) was “< LOD^1”, the “metabolite in urine related” value (urine set U XVII, 0.5 h post (0.58 h), garlic 3.1559 g) was 0.01 and the “metabolite in urine related” value (urine set U XVII, 1 h post (1.00 h), garlic 3.1559 g) was 0.1. The “metabolite in urine related” value (urine set U XVII, 2 h post (2.17 h), garlic 3.1559 g) was 0.3, the “metabolite in urine related” value (urine set U XVII, 4 h post (4.00 h), garlic 3.1559 g) was 0.2 and the “metabolite in urine related” value (urine set U XVII, 6 h post (6.08 h), garlic 3.1559 g) was 0.02. For the same compound, the “metabolite in urine related” value (urine set U XVII, 8 h post (8.00 h), garlic 3.1559 g) was 0.02, the “metabolite in urine related” value (urine set U XVII, 24 h post (23.92 h), garlic 3.1559 g) was “traces^1” and the “metabolite in urine related” value (urine set U XVII, pre (-0.08 h), garlic 3.1559 g) was “traces^1”. The “metabolite in urine related” value (urine set U XVIII, 0.5 h post (0.63 h), garlic 3.1981 g) was 0.2, the “metabolite in urine related” value (urine set U XVIII, 1 h post (1.05 h), garlic 3.1981 g) was 0.3 and the “metabolite in urine related” value (urine set U XVIII, 2 h post (2.00 h), garlic 3.1981 g) was 0.6. The “metabolite in urine related” value (urine set U XVIII, 4 h post (3.97 h), garlic 3.1981 g) was 0.4, the “metabolite in urine related” value (urine set U XVIII, 6 h post (5.97 h), garlic 3.1981 g) was 0.1 and the “metabolite in urine related” value (urine set U XVIII, 8 h post (8.30 h), garlic 3.1981 g) was 0.4. The “metabolite in urine related” value (urine set U XVIII, 24 h post (24.13 h), garlic 3.1981 g) was “traces^1” and the “metabolite in urine related” value (urine set U XVIII, pre (-0.08 h), garlic 3.1981 g) was “< LOD^1”.
